In brackets after ≈: the same amount, converted by molar mass. Read-outs that look alike come from different tables or passages of the source. Where a SMILES comes first, the peptide text is derived from it.
Legend:
[1] = tested on: E. coli DHα5; assay type: cell-based, Escherichia coli
[2] = tested on: P. aeruginosa PAO1; assay type: cell-based, Pseudomonas aeruginosa
[3] = tested on: P. gingivalis W50; assay type: cell-based, Porphyromonas gingivalis
[4] = tested on: red blood cells; settings: cited from earlier work
[5] = tested on: E. coli; assay type: cell-based, Escherichia coli; settings: 50% saliva (45% in legend) in PBS, 2 hours, 35°C
[6] = tested on: P. gingivalis (53977, DPG3, W50); experiment: Bacterial killing assay; assay type: cell-based, Porphyromonas gingivalis; settings: three strains, 200 μg/ml peptide, 2 ½ hours, 35°C, CFU
[7] = target: T1, LPS-binding protein (LBP) (Homo sapiens, UniProt P18428); experiment: LPS binding to LPS-binding protein; settings: LPS + 180–200 μg/ml GL13K; mean ± SEM, N=3
T1 sequence (P18428 26-481): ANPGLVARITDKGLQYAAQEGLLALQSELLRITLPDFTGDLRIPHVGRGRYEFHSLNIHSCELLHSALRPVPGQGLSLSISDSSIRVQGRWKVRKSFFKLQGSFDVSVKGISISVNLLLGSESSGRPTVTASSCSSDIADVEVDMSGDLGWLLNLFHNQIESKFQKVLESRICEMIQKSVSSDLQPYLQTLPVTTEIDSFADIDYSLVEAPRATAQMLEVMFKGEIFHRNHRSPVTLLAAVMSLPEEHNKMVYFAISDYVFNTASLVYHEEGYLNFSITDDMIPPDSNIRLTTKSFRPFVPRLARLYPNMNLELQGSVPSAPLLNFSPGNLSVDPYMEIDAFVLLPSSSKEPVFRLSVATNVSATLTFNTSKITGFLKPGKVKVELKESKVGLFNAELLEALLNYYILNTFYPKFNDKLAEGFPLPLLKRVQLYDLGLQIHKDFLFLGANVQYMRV

[8] = tested on: red blood cells

## CC[C@H](C)[C@H](NC(=O)[C@H](CCC(N)=O)NC(=O)CN)C(=O)N[C@H](C(=O)N[C@@H](CC(N)=O)C(=O)N[C@@H](CC(C)C)C(=O)N[C@@H](CCCCN)C(=O)N[C@@H](C)C(=O)N[C@@H](CO)C(=O)N[C@@H](CC(C)C)C(=O)N[C@@H](CC(=O)O)C(=O)N[C@@H](CC(C)C)C(=O)N[C@@H](CC(C)C)C(N)=O)[C@@H](C)CC [GL13NH2] (H-GQIINLKASLDLL-NH2)
[1]
  MIC: >200 µg/mL
[2]
  MIC: >167 µg/mL
[3]; W50
  MIC: >167 µg/mL
[4]
  Hemagglutination (caused, implied by contrast with GL13K): hemagglutination

## CC[C@H](C)[C@H](NC(=O)[C@H](CCCCN)NC(=O)[C@H](CCC(=O)O)NC(=O)[C@H](CCCCN)NC(=O)[C@H](CO)NC(=O)[C@H](CCCCN)NC(=O)[C@H](CCCNC(=N)N)NC(=O)[C@H](Cc1ccccc1)NC(=O)[C@H](Cc1ccccc1)NC(=O)[C@H](CC(=O)O)NC(=O)CNC(=O)[C@H](CC(C)C)NC(=O)[C@@H](N)CC(C)C)C(=O)NCC(=O)N[C@@H](CCCCN)C(=O)N[C@@H](CCC(=O)O)C(=O)N[C@@H](Cc1ccccc1)C(=O)N[C@@H](CCCCN)C(=O)N[C@@H](CCCNC(=N)N)C(=O)N[C@H](C(=O)N[C@H](C(=O)N[C@@H](CCC(N)=O)C(=O)N[C@@H](CCCNC(=N)N)C(=O)N[C@H](C(=O)N[C@@H](CCCCN)C(=O)N[C@@H](CC(=O)O)C(=O)N[C@@H](Cc1ccccc1)C(=O)N[C@@H](CC(C)C)C(=O)N[C@@H](CCCNC(=N)N)C(=O)N[C@@H](CC(N)=O)C(=O)N[C@@H](CC(C)C)C(=O)N[C@H](C(=O)N1CCC[C@H]1C(=O)N[C@@H](CCCNC(=N)N)C(=O)N[C@H](C(=O)N[C@@H](CCC(=O)O)C(=O)N[C@@H](CO)C(=O)O)[C@@H](C)O)C(C)C)[C@@H](C)CC)C(C)C)[C@@H](C)CC [LL-37]
[5]
  Reduction of CFU / bactericidal activity in the presence of saliva: less than 90%
[6]
  Bactericidal activity: killed
[3]; broth dilution in Pg broth, 10^4 CFU, OD 570 nm, seven independent experiments
  MIC: 25 µg/mL (≈ 5.56 µM)

## CC[C@H](C)[C@H](NC(=O)[C@H](CCCCN)NC(=O)CN)C(=O)N[C@H](C(=O)N[C@@H](CCCCN)C(=O)N[C@@H](CC(C)C)C(=O)N[C@@H](CCCCN)C(=O)N[C@@H](C)C(=O)N[C@@H](CO)C(=O)N[C@@H](CC(C)C)C(=O)N[C@@H](CCCCN)C(=O)N[C@@H](CC(C)C)C(=O)N[C@@H](CC(C)C)C(N)=O)[C@@H](C)CC [GL13K] (H-GKIIKLKASLKLL-NH2)
[1]
  MIC: 5 µg/mL (≈ 3.51 µM)
  MIC, 50% saliva: 50 µg/mL (≈ 35.1 µM)
[7]
  LBP binding of LPS relative to LPS alone (100%): 45.3%±9.7% (N=3)
[8]
  Hemagglutination: did not cause hemagglutination

## CC[C@H](C)[C@H](NC(=O)[C@H](CCC(N)=O)NC(=O)CN)C(=O)N[C@H](C(=O)N[C@@H](CC(N)=O)C(=O)N[C@@H](CC(C)C)C(=O)N[C@@H](CCCCN)C(N)=O)[C@@H](C)CC [GK7NH2] (H-GQIINLK-NH2)
[1]
  MIC: >200 µg/mL
  MIC, 50% saliva: >167 µg/mL
[2]
  MIC: >167 µg/mL
[3]; W50
  MIC: >167 µg/mL

## polymyxin B
[5]
  Reduction of CFU / bactericidal activity in the presence of saliva: retained bactericidal activity
[6]
  Bactericidal activity: ineffective
